# Experimental data: patent US12053459B2, “CDK2 inhibitors and methods of using the same” (Cedilla Therapeutics, Inc., priority 2021, dated 2024)
# Legend:
# CDK2/Cyclin E1(14-475) = CDK2/Cyclin E1(14-475) (Homo sapiens, UniProt P24941); experiment: Caliper LabChip EZ Reader mobility shift assay, inhibition of CDK2/Cyclin E1 activity; assay type: biochemical; settings: class symbols A-D
# Summary of the method: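 CDK2/Cyclin E1(14-475) pre-incubated 30 min with compound and ATP, then reaction started with 5-FAM-QSPKKG-CONH2; final 2.5 nM enzyme, 100 μM ATP, 1.5 μM peptide, HEPES pH 7.5. Stopped with EDTA after 100 min; substrate/product conversion by capillary electrophoresis mobility shift, IC50 from four-parameter fit.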
# Kuramochi cells = experiment: BrdU cell proliferation assay (colorimetric ELISA), Kuramochi cells; assay type: cell-based; settings: class symbols A-D
# Summary of the method: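 Kuramochi cells (2,000/well, with Kuramochi RB^KO cells as a specificity control) were treated with a 4-point, 3-fold dilution series made from 10 mM compound stocks and left for 4 days at 37 °C. Proliferation was measured by 1 h BrdU labelling, then anti-BrdU peroxidase ELISA read at 450 nm. Signals were background-subtracted and normalized to DMSO wells.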
Compound,IC50 (CDK2/Cyclin E1(14-475)),IC50 (Kuramochi cells)
CNC(=O)[C@H](CCCc1ccccc1)NC(=O)C1CN(C(=O)c2ccc3cccn3c2)CC2CN(C(=O)c3ccc(OC(C)C)c(OC)c3)CC21 (some centres unmarked) [I-199],> 10 µM,> 10 µM
CNC(=O)[C@H](CCCc1ccccc1)NC(=O)C1CN(C(=O)Cc2c[nH]c3ccc(OC)cc23)CC2CN(C(=O)c3ccc(OC(C)C)c(OC)c3)CC21 (some centres unmarked) [I-200],5 to 10 µM,> 10 µM
CNC(=O)[C@H](CCCc1ccccc1)NC(=O)C1CN(C(=O)Cc2c(C)[nH]c3ccccc23)CC2CN(C(=O)c3ccc(OC(C)C)c(OC)c3)CC21 (some centres unmarked) [I-201],0.5 to 5 µM,> 10 µM
CNC(=O)[C@H](CCCc1ccccc1)NC(=O)C1CN(C(=O)Cc2ccncc2)CC2CN(C(=O)c3ccc(OC(C)C)c(OC)c3)CC21 (some centres unmarked) [I-202],> 10 µM,> 10 µM
CNC(=O)[C@H](CCCc1ccccc1)NC(=O)C1CN(C(=O)Cc2c[nH]c3cc(C#N)ccc23)CC2CN(C(=O)c3ccc(OC(C)C)c(OC)c3)CC21 (some centres unmarked) [I-203],0.5 to 5 µM,> 10 µM
CNC(=O)[C@H](CCCc1ccccc1)NC(=O)C1CN(C(=O)Cc2coc3cc(Cl)ccc23)CC2CN(C(=O)c3ccc(OC(C)C)c(OC)c3)CC21 (some centres unmarked) [I-204],0.5 to 5 µM,> 10 µM
CNC(=O)[C@H](CCCc1ccccc1)NC(=O)C1CN(C(=O)Cc2n[nH]c3cc(Cl)ccc23)CC2CN(C(=O)c3ccc(OC(C)C)c(OC)c3)CC21 (some centres unmarked) [I-205],0.5 to 5 µM,> 10 µM
CNC(=O)[C@H](CCCc1ccccc1)NC(=O)C1CN(C(=O)c2cncs2)CC2CN(C(=O)c3ccc(OC(C)C)c(OC)c3)CC21 (some centres unmarked) [I-206],> 10 µM,> 10 µM
CNC(=O)[C@H](CCCc1ccccc1)NC(=O)C1CN(C(=O)C2CCOCC2)CC2CN(C(=O)c3ccc(OC(C)C)c(OC)c3)CC21 (some centres unmarked) [I-207],> 10 µM,> 10 µM
CNC(=O)[C@H](CCCc1ccccc1)NC(=O)C1CN(C(=O)c2ccc(C#N)cn2)CC2CN(C(=O)c3ccc(OC(C)C)c(OC)c3)CC21 (some centres unmarked) [I-208],> 10 µM,> 10 µM
CNC(=O)[C@H](CCCc1ccccc1)NC(=O)C1CN(C(=O)c2cccc(CO)n2)CC2CN(C(=O)c3ccc(OC(C)C)c(OC)c3)CC21 (some centres unmarked) [I-209],> 10 µM,> 10 µM
CNC(=O)[C@H](CCCc1ccccc1)NC(=O)C1CN(C(=O)c2cccc(-c3cccnc3)c2)CC2CN(C(=O)c3ccc(OC(C)C)c(OC)c3)CC21 (some centres unmarked) [I-210],> 10 µM,> 10 µM
CNC(=O)[C@H](CCCc1ccccc1)NC(=O)C1CN(C(=O)c2cncc(C)n2)CC2CN(C(=O)c3ccc(OC(C)C)c(OC)c3)CC21 (some centres unmarked) [I-211],> 10 µM,> 10 µM
CNC(=O)[C@H](CCCc1ccccc1)NC(=O)C1CN(C(=O)Cc2c[nH]c3cnccc23)CC2CN(C(=O)c3ccc(OC(C)C)c(OC)c3)CC21 (some centres unmarked) [I-212],> 10 µM,> 10 µM
CNC(=O)[C@H](CCCc1ccccc1)NC(=O)C1CN(C(=O)c2cccc3cc[nH]c23)CC2CN(C(=O)c3ccc(OC(C)C)c(OC)c3)CC21 (some centres unmarked) [I-213],> 10 µM,> 10 µM
CCc1ccc(C(=O)N2CC3CN(C(=O)c4ccc(OC(C)C)c(OC)c4)CC3C(C(=O)N[C@@H](CCCc3ccccc3)C(=O)NC)C2)nc1 (some centres unmarked) [I-214],> 10 µM,> 10 µM
CNC(=O)[C@H](CCCc1ccccc1)NC(=O)C1CN(C(=O)c2ccn(C)c2)CC2CN(C(=O)c3ccc(OC(C)C)c(OC)c3)CC21 (some centres unmarked) [I-215],> 10 µM,> 10 µM
CNC(=O)[C@H](CCCc1ccccc1)NC(=O)C1CN(C(=O)c2ccc(OC)nn2)CC2CN(C(=O)c3ccc(OC(C)C)c(OC)c3)CC21 (some centres unmarked) [I-216],> 10 µM,> 10 µM
CNC(=O)[C@H](CCCc1ccccc1)NC(=O)C1CN(C(=O)Cc2c[nH]c3cccc(C)c23)CC2CN(C(=O)c3ccc(OC(C)C)c(OC)c3)CC21 (some centres unmarked) [I-217],> 10 µM,> 10 µM
CNC(=O)[C@H](CCCc1ccccc1)NC(=O)C1CN(C(=O)Cc2cn(CCOC)c3ccccc23)CC2CN(C(=O)c3ccc(OC(C)C)c(OC)c3)CC21 (some centres unmarked) [I-218],> 10 µM,> 10 µM
CNC(=O)[C@H](CCCc1ccccc1)NC(=O)C1CN(C(=O)Cc2c[nH]c3ccc(C)cc23)CC2CN(C(=O)c3ccc(OC(C)C)c(OC)c3)CC21 (some centres unmarked) [I-219],0.5 to 5 µM,> 10 µM
CNC(=O)[C@H](CCCc1ccccc1)NC(=O)C1CN(C(=O)Cc2c[nH]c3ccc(Cl)cc23)CC2CN(C(=O)c3ccc(OC(C)C)c(OC)c3)CC21 (some centres unmarked) [I-220],> 10 µM,> 10 µM

Compound,IC50 (CDK2/Cyclin E1(14-475)),IC50 (Kuramochi cells)
CNC(=O)[C@H](CCCc1ccccc1)NC(=O)C1CN(C(=O)Cc2c[nH]c3ccccc23)CC2CN(C(=O)c3ccc(OC(C)C)c(OC)c3)CC21 (some centres unmarked) [I-223],> 10 µM,> 10 µM
CNC(=O)[C@H](CCCc1ccccc1)NC(=O)C1CN(C(=O)Cc2cn(C)c3cc(Cl)ccc23)CC2CN(C(=O)c3ccc(OC(C)C)c(OC)c3)CC21 (some centres unmarked) [I-225],0.5 to 5 µM,> 10 µM
CNC(=O)[C@H](CCCc1ccccc1)NC(=O)C1CN(C(=O)C(C)c2c[nH]c3cc(Cl)ccc23)CC2CN(C(=O)c3ccc(OC(C)C)c(OC)c3)CC21 (some centres unmarked) [I-226],0.5 to 5 µM,5 to 10 µM
CNC(=O)[C@H](CCCc1ccccc1)NC(=O)C1CN(C(=O)Cc2c[nH]c3cc(Cl)c(Cl)cc23)CC2CN(C(=O)c3ccc(OC(C)C)c(OC)c3)CC21 (some centres unmarked) [I-227],≤ 0.5 µM,> 10 µM
CNC(=O)[C@H](CCCc1ccccc1)NC(=O)C1CN(C(=O)c2c[nH]c3cc(C)ccc23)CC2CN(C(=O)c3ccc(OC(C)C)c(OC)c3)CC21 (some centres unmarked) [I-228],> 10 µM,> 10 µM
CNC(=O)[C@H](CCCc1ccccc1)NC(=O)C1CN(C(=O)Cc2c[nH]c3c(OC)cccc23)CC2CN(C(=O)c3ccc(OC(C)C)c(OC)c3)CC21 (some centres unmarked) [I-229],> 10 µM,> 10 µM
CNC(=O)[C@H](CCCc1ccccc1)NC(=O)C1CN(C(=O)Cc2cnccn2)CC2CN(C(=O)c3ccc(OC(C)C)c(OC)c3)CC21 (some centres unmarked) [I-230],> 10 µM,> 10 µM
CNC(=O)[C@H](CCCc1ccccc1)NC(=O)C1CN(C(=O)Cc2c[nH]c3cc(C)ccc23)CC2CN(C(=O)c3ccc(OC(C)C)c(OC)c3)CC21 (some centres unmarked) [I-231],5 to 10 µM,> 10 µM
CNC(=O)[C@H](CCCc1ccccc1)NC(=O)C1CN(C(=O)Cc2c[nH]c3cc(OCC4CC4)ccc23)CC2CN(C(=O)c3ccc(OC(C)C)c(OC)c3)CC21 (some centres unmarked) [I-234],> 10 µM,> 10 µM
CNC(=O)[C@H](CCCc1ccccc1)NC(=O)C1CN(C(=O)Cc2c[nH]c3ccc(Br)cc23)CC2CN(C(=O)c3ccc(OC(C)C)c(OC)c3)CC21 (some centres unmarked) [I-237],≤ 0.5 µM,> 10 µM
"COc1cc(C(=O)N2CC3CN(C(=O)Cc4c[nH]c5cc(Cl)ccc45)CC(C(=O)Nc4cncc(Cc5ccccc5)c4)C3C2)ccc1OC(C)C (centres unmarked) [I-238, N-(5-benzylpyridin-3-yl)-5-(2-(6-chloro-1H-indol-3-yl)acetyl)-2-(4-isopropoxy-3-methoxybenzoyl)octahydro-1H-pyrrolo[3,4-c]pyridine-7-carboxamide]",0.5 to 5 µM,0.5 to 5 µM
COc1cc(C(=O)N2CC3CN(C(=O)Cc4c[nH]c5cc(Cl)ccc45)CC(C(=O)Nc4ccnc(Cc5ccccc5)c4)C3C2)ccc1OC(C)C (centres unmarked) [I-239],0.5 to 5 µM,> 10 µM
COc1cc(C(=O)N2CC3CN(C(=O)Cc4c[nH]c5cc(Cl)ccc45)CC(C(=O)Nc4cncc(Oc5ccccc5)c4)C3C2)ccc1OC(C)C (centres unmarked) [I-240],0.5 to 5 µM,> 10 µM
COc1cc(C(=O)N2CC3CN(C(=O)Cc4c[nH]c5cc(Cl)ccc45)CC(C(=O)Nc4ccc(Cc5ccccc5)nc4)C3C2)ccc1OC(C)C (centres unmarked) [I-241],> 10 µM,> 10 µM
"CNC(=O)[C@@H](NC(=O)C1CN(C(=O)Cc2c[nH]c3cc(Cl)ccc23)CC2CN(C(=O)c3ccc(OC4CC4)cc3)CC21)[C@@H](C)OCC1CCCCC1 (stereo partly drawn) [I-242, 5-(2-(6-chloro-1H-indol-3-yl)acetyl)-N-((2S,3R)-3-(cyclohexylmethoxy)-1-(methylamino)-1-oxobutan-2-yl)-2-(4-cyclopropoxybenzoyl)octahydro-1H-pyrrolo[3,4-c]pyridine-7-carboxamide]",0.5 to 5 µM,> 10 µM
C[C@H](OCc1ccc(F)cc1)[C@H](NC(=O)C1CN(C(=O)Cc2c[nH]c3cc(Cl)ccc23)CC2CN(C(=O)c3ccc(OC4CC4)cc3)CC21)C(N)=O (some centres unmarked) [I-243],0.5 to 5 µM,> 10 µM
C[C@@H](OCc1ccc(F)cc1)[C@H](NC(=O)C1CN(C(=O)Cc2c[nH]c3cc(Cl)ccc23)CC2CN(C(=O)c3ccc(OC4CC4)cc3)CC21)C(N)=O (some centres unmarked) [I-244],> 10 µM,> 10 µM
C[C@H](OCc1ccc(F)cc1)[C@@H](NC(=O)C1CN(C(=O)Cc2c[nH]c3cc(Cl)ccc23)CC2CN(C(=O)c3ccc(OC4CC4)cc3)CC21)C(N)=O (some centres unmarked) [I-245],> 10 µM,> 10 µM
C[C@@H](OCc1ccc(F)cc1)[C@@H](NC(=O)C1CN(C(=O)Cc2c[nH]c3cc(Cl)ccc23)CC2CN(C(=O)c3ccc(OC4CC4)cc3)CC21)C(N)=O (some centres unmarked) [I-246],> 10 µM,> 10 µM
"CNC(=O)[C@H](CCCc1ccccc1)NC(=O)C1CN(C(=O)Cc2c[nH]c3cc(OC)ccc23)CC2CN(C(=O)c3ccc(Cl)c(Cl)c3)CC21 (stereo partly drawn) [I-247, 2-(3,4-dichlorobenzoyl)-5-(2-(6-methoxy-1H-indol-3-yl)acetyl)-N—((S)-1-(methylamino)-1-oxo-5-phenylpentan-2-yl)octahydro-1H-pyrrolo[3,4-c]pyridine-7-carboxamide]",> 10 µM,> 10 µM
CNC(=O)[C@H](CCCc1ccccc1)NC(=O)C1CN(C(=O)Cc2c[nH]c3cc(OC)ccc23)CC2CN(C(=O)c3ccc(C(F)(F)F)c(Cl)c3)CC21 (some centres unmarked) [I-248],> 10 µM,> 10 µM
